According to publication PMC8227227 (Viruses, 2021):
Like-named read-outs stand apart in the source and are kept apart here.

How the values were obtained:
[1] = biological target: T1, HIV-1 PR (Human immunodeficiency virus type 1 group M subtype B, UniProt P04585); assay: Enzyme assay with synthetic oligopeptide substrates (RP-HPLC); assay type: biochemical, human immunodeficiency virus type 1 (HIV-1); conditions: for kcat / Km: Table 3, revertant peptides, 37 °C, 1 h; for kcat: same buffer, peptides not cleaved at threshold given as estimated kcat < 0.01 s^−1; for cleavability by HIV-1 PR: threshold estimated kcat < 0.01 s^−1; for Km: 0.25 M potassium phosphate pH 5.6, 7.5% glycerol, 1 mM EDTA, 5 mM DTT, 2 M NaCl, RP-HPLC, Michaelis-Menten fit; for kcat/Km: Table 3, specificity constant calculated from the Km and kcat values
T1 construct: assayed as substrates of the HIV-1 protease (PR)

[2] = biological target: T1, HIV-1 PR; conditions: values published previously, cited from earlier work

Sequence | kcat [1] [s⁻¹] | Km [1] [µM] | Km ([2]; Table 2) [µM] | kcat ([2]; Table 2) | kcat/Km ([2]; Table 2) | other results
RKIVKCFGCIKR [peptide 18, revertant NC-1 cleavage site peptide […]] | <0.010 | – | – | – | – | cleavability by HIV-1 PR [1]: did not provide a cleavable peptide
RKIVICFGCGKR [peptide 16, revertant NC-1 cleavage site peptide […]] | 0.034 | 35 | – | – | – | kcat/Km [1]: 0.97 ^5 mM^−1 s^−1
KIVKCFGCGK [peptide 14, P1′ substituted NC-1 decapeptide […]] | – | – | 1340 | 0.002 ^1 s^−1 | 0.001 ^1 mM^−1 s^−1 | Km ([2]; Table 3, repeated from Table 2): 1340 µM; kcat ([2]; Table 3, repeated from Table 2): 0.002 s⁻¹; kcat/Km ([2]; Table 3, repeated from Table 2): 0.001 mM⁻¹ s⁻¹
KIVTCFGCGK [peptide 15, revertant NC-1 cleavage site peptide […]] | <0.010 | – | – | – | – | cleavability by HIV-1 PR [1]: did not yield a cleavable peptide
RKIVICFGCIKR [peptide 19, revertant NC-1 cleavage site peptide […]] | 0.015 | < 10 | – | – | – | –
KIVKCFFCGK [peptide 2, P1′ substituted NC-1 decapeptide […]] | – | – | 20 | 0.900 ^1 s^−1 | 59.6 ^1 mM^−1 s^−1 | –
KIVKICFGCGKR [peptide 17, revertant NC-1 cleavage site peptide […]] | 0.025 | 70 | – | – | – | kcat/Km [1]: 0.35 mM⁻¹ s⁻¹
KIVKCFNCGK [peptide 1] | – | – | 430 | 0.017 ^1 s^−1 | 0.040 ^1 mM^−1 s^−1 | Km ([2]; Table 3, repeated from Table 2): 430 µM; kcat ([2]; Table 3, repeated from Table 2): 0.017 s⁻¹; kcat/Km ([2]; Table 3, repeated from Table 2): 0.040 mM⁻¹ s⁻¹
